Values joined by “and” are separate entries in the source; they are usually repeats but may differ in a detail not shown here. Equal entries are not always repeated.
Assays:
[1] = test system: adult Long-Evans male rats; test: Example 18: elevated plus maze, body weight and hypothalamic volumes in adult male rats treated with equol; type: in vivo, rat
Text: In this study, anxiety-related behaviors were examined along with hormone levels in adult Long-Evans male rats exposed to equol. A known and accepted animal behavioral test for psychiatric disorders in humans, such as elevated plus maze (EPM) was used for this purpose (P. Willner, in Behavioral Models in Psychopharmacology: Theoretical, Industrial and Clinical Perspectives, New York, Cambridge Univ. Press, 1991; M. A. Geyer & A. Markou, in Psychopharmacology: The Fourth Generation of Progress, NY, Raven Press, pp. 787-798, 1995; and R. Hitzemann, Alcohol & Res. Health, 24: 149-158, 2000).
The EPM test relies on the inherent conflict between exploration of a novel environment and avoidance of its aversive features. Typically, animals spend little time and make few entries into the open arms (new environment) compared to the closed arms of the maze (secure environment). For example, an anti-anxiety agent or drug would increase the number of entries into and total time spent in the open arms of the maze.
Male rats 50 days of age were given a diet low in phytoestrogens (10 ppm of isoflavones) and remained on this diet until 215 days of age. At 150 days of age the rats were age and body weight matched and then divided into control or equol treatment groups. Starting at 190 days, the male rats received daily subcutaneous (0.1 cc) injections of control vehicle (DMSO) or equol (2.5 mg/Kg) for 25 consecutive days.
After 15 days on the treatments the animals were tested in the EPM that was video-taped for 3 minutes and later recorded for the number of entries into—and the percentage of total time spent—on the open arms via AnyMaze® computer software.
At 215 days of age the animals were sacrificed and body/prostate weights, serum hormone and isoflavone levels were determined along with determining the volume of hypothalamic regions that are sensitive to hormones.
The brains were processed via standard staining and analyzed via Bioquant® for morphometric SDN and AVPV parameters by treatments.

[2] = test system: GDX males; test: Examples 5 and 6: gonadectomized (GDX) male rats treated with DHTP, equol or both; histology; type: in vivo, rat
Procedure: One week following arrival, animals are gonadectomized (GDX) under isoflurane anesthesia and allowed to recover for 7 days. Following recovery, animals are assigned to the following groups 1) DMSO, 2) DHTP (2 mg/1 kg), 3) racemic equol (0.25 mg/kg), or 4) both DHTP and racemic equol. Injections are given subcutaneously daily for 4 days. Animals are killed via decapitation and trunk blood and tissues are collected for analysis.
Tissues, including prostate, testes and epididymis, are removed from the animal, dissected free of fat and connective tissues, weighed, fixed by immersion in 4% paraformaldehyde, and then sectioned at 15 μm on a cryostat. Tissue sections are mounted on charged slides (Superfrost Plus, Fisher Scientific, Pittsburgh, Pa.) prewarmed to 23° C., and stained with hematoxylin and eosin (H&E), dehydrated in ascending alcohol and cleared with xylene.

[3] = test system: GDX males; test: as above; type: in vivo, rat; remark: listed apart in the source
[4] = target: T1, ERα (Rattus norvegicus, UniProt P06211); test: Competition binding of equol enantiomers with [3H]E2 for in vitro translated ERα
T1 construct: Full length rat ERα expression vector (pcDNA-ERα; RH Price UCSF); made in house; host or cells: TnT-coupled rabbit reticulocyte lysate in vitro translation (Promega)
T1 sequence (P06211 1-600): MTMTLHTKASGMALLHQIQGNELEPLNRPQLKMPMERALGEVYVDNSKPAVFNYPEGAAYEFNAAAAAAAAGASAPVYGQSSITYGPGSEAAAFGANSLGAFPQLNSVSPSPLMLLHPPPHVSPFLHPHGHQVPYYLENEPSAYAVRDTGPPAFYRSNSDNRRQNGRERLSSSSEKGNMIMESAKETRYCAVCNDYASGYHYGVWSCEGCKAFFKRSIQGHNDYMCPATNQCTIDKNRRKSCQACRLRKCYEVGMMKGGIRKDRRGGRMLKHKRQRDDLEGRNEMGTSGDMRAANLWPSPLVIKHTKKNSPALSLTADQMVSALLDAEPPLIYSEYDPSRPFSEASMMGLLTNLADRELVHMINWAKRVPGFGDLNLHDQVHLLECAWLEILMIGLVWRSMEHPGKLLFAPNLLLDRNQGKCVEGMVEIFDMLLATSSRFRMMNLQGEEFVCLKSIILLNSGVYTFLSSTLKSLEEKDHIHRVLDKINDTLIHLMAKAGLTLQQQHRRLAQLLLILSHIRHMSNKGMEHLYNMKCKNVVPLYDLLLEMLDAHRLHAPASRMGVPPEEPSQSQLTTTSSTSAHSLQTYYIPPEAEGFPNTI
Procedure: In vitro binding studies were performed to examine the relative affinities of S— and R-enantiomeric equol with the estrogen receptors ERα and ERβ.
Synthesis of Hormone Receptor Proteins: Full length rat ERα expression vector (pcDNA-ERα; RH Price UCSF) and ERβ expression vector (pcDNA-ERβ; T A Brown, Pfizer, Groton, […].) were used to synthesize hormone receptors in vitro using the TnT-coupled reticulocyte lysate system (Promega, Madison, Wis.) with T7-RNA polymerase, during a 90 min reaction at 30° C. Translation reaction mixtures were stored at −80° C. until further use.
Saturation isotherms: In order to calculate and establish the binding affinity of the S-equol and R-equol enantiomers for ERα and ERβ, 100 μL aliquots of reticulocyte lysate supernatant were incubated at optimal time and temperature; 90 min at room temperature (ERβ) and 18 hrs at 4° C. (ERα), with increasing (0.01-100 nm) concentrations of [3H] […] These times were determined empirically and represent optimal binding of receptor with estrogen. Nonspecific binding was assessed using a 300-fold excess of the ER agonist diethylstilbestrol, in parallel tubes. Following incubation, bound and unbound [3H]E2 were separated by passing the incubation reaction through a 1 mL lipophilic Sephadex LH-20 (Sigma-Aldrich Co., Saint Louis, Mo.) column Columns were constructed by packing a disposable pipette tip (1 mL; Labcraft, Curtin Matheson Scientific, Inc, Houston, Tex.) with TEGMD (10 mm Tris-Cl, 1.5 mm EDTA, 10% glycerol, 25 mm molybdate, and 1 mm dithiothreitol, pH 7.4)-saturated Sephadex according to previously published protocols (Wanda et al., 1986; O'Keefe and Handa, 1990). For chromatography, the columns were re-equilibrated with TEGMD (100 μL), and the incubation reactions were added individually to each column and allowed to incubate on the column for an additional 30 min. Following this incubation, 600 μL of TEGMD were added to each column, flow-through was collected, 4 mL scintillation fluid was added, and samples were counted (5 min each) in an 2900 TR Packard scintillation counter (Packard Bioscience, Meriden, Conn.).
Competition binding studies were used to assess the estrogenic properties of equol's S-equol and R-equol enantiomers. Based on the ability of S and R to compete with [3H]

[5] = 25 consecutive days, n = 4, not significant vs control
[6] = after 15 days of treatment, vs controls

| SMILES | AVPV Volumes [1, 5] [mm^3 × 10^−3] | SDN Volumes [1, 5] [mm^3 × 10^−3] | number of entries into the open arms of the EPM [1, 6] | time spent on the open arms of the EPM [1, 6] | body weights ([1]; equol 2.5 mg/Kg sc daily for 25 days, vs control) | serum equol levels ([1]; equol-treated animals) | LH, in combination with DHTP ([2]; GDX males, DHTP+equol) | prostate weight, concomitant treatment with DHTP ([2]; GDX males, DHTP+equol) | LH ([2]; GDX males, given alone, vs DMSO) | prostate weight ([2]; GDX males, given alone, vs vehicle-treated GDX) | plasma 5α-DHT, co-treatment of DHTP-treated animals with equol ([2]; GDX+equol+DHTP vs GDX+DHTP) | epididymal histology (H&E) ([3]; intact males vs control males) | prostate histology (H&E) ([3]; intact males vs intact control) | relative binding affinity for ERα compared with 17β-estradiol, fold less [4] | Kd ([4]; competition with [3H]E2, in vitro translated ER) [nM] |
| --- | --- | --- | --- | --- | --- | --- | --- | --- | --- | --- | --- | --- | --- | --- | --- |
| Oc1ccc(C2COc3cc(O)ccc3C2)cc1 (racemic) [equol, 7-hydroxy-3(4′hydroxyphenyl)-chroman] | 10.59 ± 1.6 | 46.3 ± 3.1 | significantly greater | significantly greater | significantly decreased | equivalent to consuming a phytoestrogen-rich soy diet | blocks the negative feedback effects of DHTP on LH secretion | blocks the effects of DHTP | no effect on LH levels | no effect alone on prostate size | further elevated, although, not significantly | overall smaller ducts | involution and consist of more closely spaced, atrophic glands | – | – |
| Oc1ccc([C@@H]2COc3cc(O)ccc3C2)cc1 [R-equol] | – | – | – | – | – | – | – | – | – | – | – | – | – | 210.6 fold and 211 fold | 27.4 ± 3.8 |

Reference: patent US20070043108A1, “Use of equol for ameliorating or preventing neuropsychiatric and neurodegenerative diseases or disorders” (priority 2002, published 2007)
